According to patent US11014934B2, “Antiseptic drug” (AO “TATKHIMFARMPREPARATY”, priority 2017, dated 2021):
Read-outs that look alike come from different tables or passages of the source.

Experiments:
all bacterial strains = experiment: MIC screening, summary for all bacterial strains; assay type: cell-based
Method: (§1) A comparative assessment of the spectrum of antibacterial action was carried out on archival and clinical strains of gram-positive and gram-negative microorganisms in accordance with the [Opredeleniye chuvstvitel'nosti mikroorganizmov k antibakterial'nym preparatam (Metodicheskiye ukazaniya MUK 4.2.1890-04). Utverzhdeny i vvedeny v deystviye Glavnym gosudarstvennym sanitarnym vrachom Rossiyskoy Federatsii G. G. Onishchenko 04.03.2004 g. Determination of the sensitivity of microorganisms to antibacterial drugs (Guidelines MUK 4.2.1890-04). Approved and put into effect by the Chief State Sanitary Doctor of the Russian Federation G. G. Onishchenko on 4 Mar. 2004].
The value of the minimum inhibitory concentration (MIC) was determined by the method of serial dilutions on Müller-Hinton broth using 96-well sterile plates. […] The growth of cultures was assessed visually, comparing the growth of microorganisms in the presence of test compounds with the growth of culture without them. […] The first lowest concentration of the studied substance (from a series of consecutive dilutions), where bacterial growth is not visually determined, is considered to be the minimum inhibitory concentration (MIC). MIC was determined by the method of serial dilutions in broth with increment=2, so the differences of neighboring dilutions are not considered to be significant. […]

gram-negative bacteria = experiment: MIC screening, summary for gram-negative bacteria; assay type: cell-based
Method: as §1
The value of the minimum inhibitory concentration (MIC) was determined by the method of serial dilutions on Müller-Hinton broth using 96-well sterile plates. Two-fold dilutions of the test substances in a nutrient medium were prepared. The final concentrations were 1-128 ug/ml. The growth of cultures was assessed visually, comparing the growth of microorganisms in the presence of test compounds with the growth of culture without them. […] The first lowest concentration of the studied substance (from a series of consecutive dilutions), where bacterial growth is not visually determined, is considered to be the minimum inhibitory concentration (MIC). MIC was determined by the method of serial dilutions in broth with increment=2, so the differences of neighboring dilutions are not considered to be significant. In each experience there is a positive (broth with growing culture) and a negative (broth without growing culture) control.
To determine the MIC, 10 μl of culture medium was taken from those wells in which growth was not observed, and inoculation was performed on a dense Müller-Hinton broth. For the preparation of the inoculum, a pure, daily culture of gram-positive and gram-negative microorganisms grown on a dense nutrient medium was used. Nutrient medium is Müller-Hinton broth, which was prepared from dry media (Müller-Hinton broth, Acumedia, Baltimore), cultivation was carried out on agarized Müller-Hinton broth, including an additional 2% agar. The media were autoclaved at 121° C. for 15 minutes. […] The inoculum was used within 15 minutes after preparation; the purity of the bacterial strains was monitored before each experiment.
100 μl of Müller-Hinton broth was added to the wells of each plate; The tested substance was introduced into the first well at a concentration of 128 μg/ml in a volume of 100 μl and its concentration was adjusted to 0.5 μg/ml by consecutive two-fold dilution. […] In addition, the purity of nutrient media and solvents was monitored. […] The growth of cultures was assessed visually, comparing the growth of microorganisms in the presence of test compounds with the growth of culture without them. […]

C. albicans = experiment: Sensitivity of microscopic fungi in solution (colonies after exposure); assay type: cell-based
Method: For the preparation of inoculum, were respectively used pure (2-5) days cultures of yeast and mycelial fungi, grown on Saburo's dense nutrient broth. Inoculum for plating was prepared in different ways, depending on the type of fungi. Thus, yeast crops (C. albicans) were prepared by washing the culture from an agar stroke. Cultures of mycelial fungi (Rh. oryzae, Asp. fumigatus) were pre-degraded in a pounder. A suspension of microorganisms was prepared in a sterile isotonic sodium chloride solution, bringing the inoculum density to 5 UNITS (GISK [State Research Institute of Standardization and Control] named after L. A. Tarasevich) or according to the McFarland standard 1 UNIT with a concentration of at least 1×10^6 CFU/ml, considering that the size of the fungal elements is approximately 10 times the size of bacteria (this provided the possibility of creating a mixture of biocide with suspension, the concentration of microorganisms of the order of 1×10^5 CFU/ml).
Solutions of compound I, miramistin, and benzalkonium chloride in working concentrations (0.1%, 0.2%, 0.3%) were poured into sterile 0.9 ml tubes. 0.1 ml of microbial suspension was added to test tubes with disinfectant solutions and mixed by shaking for several seconds. The exposition lasted for 1, 5, and 15 minutes. After required temporary exposure for action of the disinfectant, 0.5 ml of the neutralizer solution was added and mixed by shaking.
Then, 0.1 ml of the mixture was inoculated on a dense nutrient medium and the plates with inoculate were placed in a thermostat with a temperature of 27° C. for (2-4) days for yeast and (5-7) days for mycelial fungi, respectively.
After the time required for the cultivation of microorganisms of this species, the results were counted according to the number of colonies grown on the Petri dish. In the absence of growth, the time for culturing microorganisms was increased by a factor of 2. The grown colonies were subjected to microscopy.
The tested substances were studied on clinical and archival strains of yeast and mycelial fungi. As comparison drugs, drugs commonly used in clinical practice were used: miramistin and benzalconium chloride. After the required exposure time for action of the disinfectant, a series of 0.1 ml mixture was aseptically plated on the surface of a dense nutrient medium in Petri dishes. After the time of cultivation of microorganisms, the results were counted according to the number of colonies grown on the Petri dish.

mice = settings: intragastric administration on mice; literature and safety data sheets; cited from earlier work
[1] = test system: Cells of a light cow embryo (LCE); experiment: State of the LCE cell monolayer with the drug without the virus; assay type: cell-based
Method: Cells of a light cow embryo (LCE) are obtained from the Federal State Budgetary Institution “All-Russian Institute of Experimental Veterinary Medicine”, Moscow. Bovine rhinotracheitis virus (herpes virus family), vaccine strain “TK-A (VIEV)-V2” was obtained from the Federal State Budgetary Institution “All-Russian Institute of Experimental Veterinary Medicine”, Moscow.
The virus was incubated in the presence of compound I in a culture medium at 37° C. for one hour at various concentrations; miramistin and benzalkonium chloride served as control preparations. After incubation of the virus with substances, it was added to the cell culture, which was then incubated at 37° C., 5% CO2 for 72 hours.
Evaluation of the cytopathogenic effect was carried out visually by the state of the cell monolayer as compared with the controls (virus without incubation with the drug, the studied drug concentrations without the virus). The virus titer was calculated using the method of Reed-Muench in the modification of Ashmarin and expressed in Ig TCD50/ml.

Compound	MIC (all bacterial strains; read-out: MIC100) [µg/mL]	MIC (gram-negative bacteria; in 11 strains) [µg/mL]	MIC (gram-negative bacteria; in 12 strains) [µg/mL]	MIC (gram-negative bacteria; in 18 strains) [µg/mL]	Number of colonies grown in a Petri dish (C. albicans; exposure 1 min, 0.1% solution)	Number of colonies grown in a Petri dish (C. albicans; exposure 5 min, 0.1% solution)	MIC (all bacterial strains; all bacterial strains, read-out: MIC89) [µg/mL]	LD50 (mice) [mg/kg]	MIC (gram-negative bacteria; Escherichia coli, ATCC25922, range, with the exception for the archival strain E. coli ATCC 25922) [µg/mL]	Number of colonies grown in a Petri dish (C. albicans; exposure 1 min, 0.2% solution)	destruction of the monolayer, drug without the virus ([1]; 50 μg/ml)	destruction of the monolayer, drug without the virus ([1]; 100 μg/ml)	destruction of the monolayer, drug without the virus ([1]; 150 μg/ml)	destruction of the monolayer, drug without the virus ([1]; 200 μg/ml)
CCCCCCCCCCCC[N+](C)(C)Cc1cnc(C[N+](C)(C)CCCCCCCCCCCC)c2c1COC(CC)O2 (centres unmarked) [Compound I, 5,8-(Bis(methylene (N, N-dimethyl-N-dodecylammonium))-2-ethyl-4H-[1,3]dioxino [4,5-c]pyridiniumdichloride]	< 64	2 to 4	32 to 64	8 to 16	3	1								
CCCCCCCCCCCCCC(=O)NCCC[N+](C)(C)Cc1ccccc1.O.[Cl-] [Miramistin, benzyldimethyl [3-(myristoylamino)propyl]-ammonium chloride monohydrate]					12	7	< 64	1000	32 to 64	5	− (−0-10% destruction of the monolayer)	− (−0-10% destruction of the monolayer)	− (−0-10% destruction of the monolayer)	− (−0-10% destruction of the monolayer)
alkyldimethyl(phenylmethyl) ammonium chloride [Benzalconium chloride]								150						
